From PubChem BioAssay (NCI)
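Test compounds were applied to cells in 96-well plates for 48 hours at 5 doses. The concentration for full growth arrest is given as TGI.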 Where a SMILES comes first, the peptide text is derived from it. [ ]: non-standard residue; d: D form. The star is where a group is joined. Hyp = O=C(O)[CH]1C[CH](O)CN1; Cbz = O=C(OCc1ccccc1)*

Legend:
Assay in all cases: NCI-60 cell line screen, 48 h
[1] = tested on: A549 NSCLC
[2] = tested on: LOX IMVI melanoma
[3] = tested on: IGROV1 ovarian
[4] = tested on: UO-31 renal
[5] = tested on: MDA-MB-231 breast
[6] = tested on: SK-MEL-5 melanoma
[7] = tested on: EKVX NSCLC
[8] = tested on: HOP-92 NSCLC
[9] = tested on: MDA-N
[10] = tested on: HT29 colon

| SMILES | TGI [1] [µM] | TGI [2] [µM] | TGI [3] [µM] | TGI [4] [µM] | TGI [5] [µM] | TGI [6] [µM] | TGI [7] [µM] | TGI [8] [µM] | TGI [9] [µM] | TGI [10] [µM] |
| --- | --- | --- | --- | --- | --- | --- | --- | --- | --- | --- |
| CCC12CN(C(=O)OC)C3C(Br)C1CCC(=O)C32 (stereo not drawn) | > 100 | > 100 | > 100 | > 100 | > 100 | > 100 | > 100 | > 100 | > 100 | > 100 |
| COc1ccc(OC)c2c1ccc1c(C)c3ccccc3c(C)c12 |  | > 100 | > 100 | > 100 | > 100 |  |  |  | > 100 | > 100 |
| COC(OC)[C@@H]1OC[C@H](n2ccc(=O)[nH]c2=O)[C@H]1O | > 100 | > 100 | > 100 | > 100 | > 100 | > 100 | > 100 | > 100 | > 100 | > 100 |
| CN1CCN(c2ccc3nc(-c4ccc5nc(CCCc6ccc(N(CCCl)CCCl)cc6)[nH]c5c4)[nH]c3c2)CC1 | > 100 | > 100 | > 100 | > 100 | > 100 | > 100 |  | > 100 | > 100 | > 100 |
| CC(C)C(=O)/C=C/c1ccc(Cl)cc1Cl | 30.4 | 13.5 | 28.4 | 23.5 | 38.7 | 27.9 | 31 | 30.8 | 7.06 | 13.4 |
| CCOC(=O)c1nc2ccc(C(F)(F)F)cc2nc1NCc1ccc(F)cc1 | > 100 | > 100 | 77.3 | > 100 | > 100 |  | > 100 | 29.2 | > 100 | > 100 |
| N#CC(C#N)[C@@H]1CCC=C(Sc2ccccc2)[C@H]1Sc1ccccc1 | 12.7 |  | 13.6 | 17.6 | 11.6 | 18.4 | 15.4 | 13.7 | 4.41 | 13.8 |
| O=C1NC(=O)C23C(=O)NC(=O)C12C1C=CC3CC1 (stereo not drawn) | > 10 | > 10 | > 10 | > 10 | > 10 | > 10 | > 10 | > 10 | > 10 | > 10 |
| COC(=O)C1=C(C(=O)OC)N(c2ccncc2)C(c2ccco2)=CC1c1ccccc1[N+](=O)[O-] (stereo not drawn) | 31.3 | 3.35 | 4.19 | 8.21 | 27.5 |  | 15.9 | 32.4 | 7.51 | 3.95 |
| CC(=S)NC=C(C(N)=O)C(N)=O | > 100 | > 100 | > 100 |  | > 100 | > 100 | > 100 | > 100 | > 100 | > 100 |
| N#CCc1nc(-c2cc3ccc(O)cc3oc2=O)cs1 | > 100 | > 100 | > 100 | > 100 | > 100 | > 100 | > 100 | > 100 | > 100 | > 100 |
| COc1cc(/C=C/C(=O)N[C@@H]2C(=O)N3[C@@H]2SC(C)(C)[C@@H]3C(=O)O)ccc1O | > 100 | > 100 |  | > 100 | > 100 | > 100 | > 100 | > 100 | > 100 | > 100 |
| O=[N+]([O-])c1ccc2nc(/C=C(\O)c3ccccc3)c(NC34CC5CC(CC(C5)C3)C4)nc2c1 |  | > 10 | > 10 | > 10 | > 10 | > 10 | > 10 |  | > 10 | > 10 |
| CC(=O)O[C@H]1C(=O)[C@@]2(C)[C@H]([C@H](OC(=O)c3ccccc3)[C@]3(O)C[C@H](OC(=O)[C@H](O)[C@@H](NC(=O)C(C)(O)C(C)O)c4ccccc4)C(C)=C1C3(C)C)[C@]1(OC(C)=O)CO[C@@H]1C[C@@H]2O (stereo partly drawn) | > 50 | > 50 | > 50 | > 50 | 43.1 | > 50 | > 50 |  | 0.0744 |  |
| CNc1cc(Cl)ccc1C(=O)N1CCC[C@H]1CO | > 100 | > 100 | > 100 | > 100 | > 100 | > 100 | > 100 |  | > 100 | > 100 |
| O=C(c1ccccc1)N1CCC(Nc2cccnc2)O1 (stereo not drawn) | > 100 |  | > 100 | > 100 | > 100 | > 100 | > 100 | > 100 | > 100 | > 100 |
| CNc1ccc(Cl)cc1C(=O)N1CCC[C@H]1CO | > 100 | > 100 | > 100 | > 100 | > 100 |  | > 100 | > 100 | > 100 | > 100 |
| NC(=O)CNC(=O)C1CC(O)CN1C(=O)C1CCCN1C(=O)OCc1ccccc1 (stereo not drawn) (Cbz-Pro-[Hyp]-Gly-NH2; configuration not given here) | > 100 | > 100 | > 100 | > 100 | > 100 | > 100 | > 100 |  | > 100 | > 100 |
| O=C1CCCc2cc3c(cc21)CC1(C3)Cc2cc3c(cc2C1)C(=O)CCC3 | 53.8 | > 65.3 | 84.6 | 81.4 | 21.6 | 7.09 | > 100 | 82.1 |  | 7.41 |
| CCOC(=O)CCCOc1cc(-c2ccccc2F)nc2cc3c(cc12)OCO3 | > 100 | > 100 | > 100 |  | > 100 | > 100 | > 100 | > 100 | > 100 | > 100 |
| CN1C(CC(O)c2ccccc2)CCCC1CC(O)(c1ccccc1)c1ccccc1 (stereo not drawn) | 50 | 41.5 | 33.1 | 20.8 | 48.8 | 31 | 64.5 |  | 33.5 | 31.8 |
| O=C(Cn1c2c(c3ccccc31)CCCC2)N1CCOCC1 | > 100 | > 100 | > 100 | > 100 |  | > 100 | > 100 | > 100 | > 100 | > 100 |
